Data as given in patent US6906098B2, “Mixed steroidal 1,2,4,5-tetraoxane compounds and methods of making and using thereof” (priority 2002, dated 2005).
Values after ≈ are worked out from the molar mass of the structure shown. Values joined by “and” are separate entries in the source; they are usually repeats but may differ in a detail not shown here. Equal values may be shown once. Read-outs that look alike come from different tables or passages of the source.

Experiments:
[1] = test system: D6 and W2 P. falciparum clones; type: cell-based, Plasmodium falciparum; conditions: for Resistance Index: IC50 (W2)/IC50 (D6) ratio; for times more active than bis(1,1-dioxy-2-methylcyclohexane): antimalarial activity versus literature tetraoxane
[2] = test system: Plasmodium falciparum chloroquine-susceptible strain D6; assay: In vitro antimalarial drug susceptibility assay (radiolabeled hypoxanthine incorporation), strain D6; type: cell-based; conditions: for Strain D6 IC50: growth inhibition, chloroquine-susceptible strain D6, 66 h incubation; for IC50: Plasmodium falciparum, D6, 66 h, read-out: Strain D6 IC50, growth inhibition, chloroquine-susceptible strain D6, 66 h incubation
[3] = test system: Plasmodium falciparum chloroquine-resistant strain W2; assay: microbe, parasite or virus in culture; type: cell-based; conditions: for Strain W2 IC50: growth inhibition, chloroquine-resistant strain W2, 66 h incubation; for IC50: Plasmodium falciparum, W2, 66 h, read-out: Strain W2 IC50, growth inhibition, chloroquine-resistant strain W2, 66 h incubation
[4] = test system: lung NCI-H460, breast MCF7, CNS SF-268; assay: 3-cell line one dose primary anticancer assay (NCI); type: cell-based, human; conditions: growth percentage after 48 hours, at 100 μM
Method: In preliminary tests, four compounds (1B14a, 1C44, 1C45, and 1C46) were chosen by NIH-NCI for in vitro screening. See Drug discovery and development program, National Cancer Institute, Bethesda, (NCI), http://dtp.nci.nih.gov. All tetraoxanes were evaluated in the 3-cell line (lung—NCI-H460, breast—MCF7, CNS-SF-268) one dose primary anticancer assay: growth percentage after 48 hours, at 100 μM concentration of tested compound. Two compounds were eliminated at this step (1B14a and 1C46), while the acid 1C44 and primary amide 1C45 were evaluated against the full panel of 60 human tumor cell lines starting with 10^−4 M concentration of investigated compounds.

[5] = test system: Mycobacterium tuberculosis H37Rv (ATCC 27294); assay: Primary screen, Microplate Alamar Blue Assay (MABA), percent inhibition; type: cell-based; conditions: Mycobacterium tuberculosis, primary screening at 6.25 μg/ml
Summary of the method: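 Single-concentration screen at 6.25 μg/ml (or molar equivalent of the heaviest congener in a series) against H37Rv grown in BACTEC 12B medium. Growth read by Microplate Alamar Blue Assay, reported as percent inhibition.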

M. tuberculosis H37Rv = assay: Minimum inhibitory concentration (MIC) in the MABA; type: cell-based, Mycobacterium tuberculosis; conditions: Mycobacterium tuberculosis, H37RV
Summary of the method: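 Run under the NIAID TAACF screening program against M. tuberculosis by fluorescence read-out. MIC taken as the lowest concentration giving 90% reduction in fluorescence relative to controls.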

[6] = test system: M. avium strains 100, 101, 108, 109, 116; assay: M. avium MIC, Microtiter; type: cell-based, Mycobacterium avium
in vitro = conditions: African green monkey, Cytotoxcity (IC50), Table 3; VERO cell line, 72 hours exposure
VERO cells [7] = assay: cells; conditions: Chlorocebus sabaeus, Table 5
VERO cells [8] = conditions: for SI (selectivity index): ratio of IC50 in VERO cells to MIC (M. tuberculosis H37Rv)
[9] = Table 3, H37Rv, read-out: Inhibition (%)
[10] = Table 5, Alamar assay, read-out: % Inhib
[11] = Table 5, Alamar assay, M. tuberculosis H37Rv, read-out: MIC

SMILES: CCCNC(=O)CC[C@@H](C)[C@H]1CC[C@H]2[C@@H]3[C@H](OC(C)=O)C[C@@H]4CC(OO)(OO)CC[C@]4(C)[C@H]3C[C@H](OC(C)=O)[C@]12C
- melting point: 120 to 129 °C

SMILES: COC(=O)CCC(C)[C@H]1CCC2C3C(C[C@H](OC(C)=O)[C@@]21C)[C@@]1(C)CCC2(C[C@H]1C[C@H]3OC(C)=O)OOC1(CCC(c3ccccc3)CC1)OO2 (single isomer, unassigned) [Compound 1B14a, Methyl 7α,12α-diacetoxy-5β-cholan-24-oate-3-spiro-6′-(1′,2′,4′,5′-tetraoxacyclohexane)-3′-spiro-1″-((4″R or S)- and (4″S or R)-phenyl)cyclohexane]
- Resistance Index [1]: 0.93
- Strain D6 IC50 [2]: 0.01256 µg/mL
- Strain W2 IC50 [3]: 0.01172 µg/mL
- outcome of one dose primary anticancer assay [4]: eliminated
- inhibition at 6.25 µg/mL [5, 9]: 37%
- inhibition at 6.25 µg/mL [5, 10]: 37%
- MIC (M. tuberculosis H37Rv; Table 3, H37Rv, read-out: MIC): > 6.25 µg/mL
- MIC (M. tuberculosis H37Rv; [11]): > 6.25 µg/mL

SMILES: CNC(=O)CCC(C)[C@H]1CCC2C3C(C[C@H](OC(C)=O)[C@@]21C)[C@@]1(C)CCC2(C[C@H]1C[C@H]3OC(C)=O)OOC1(CCC(c3ccccc3)CC1)OO2 (single isomer, unassigned) [Compound 1C46, N-Methyl-7α,12α-Diacetoxy-5β-cholan-24-amide-3-spiro-6′-(1′,2′,4′,5′-tetraoxacyclohexane)-3′-spiro-1″-((4″R or S)-phenyl)cyclohexane]
- Resistance Index [1]: 0.79
- Strain D6 IC50 [2]: 0.00883 µg/mL
- Strain W2 IC50 [3]: 0.00696 µg/mL
- outcome of one dose primary anticancer assay [4]: eliminated
- inhibition at 6.25 µg/mL ([5]; Table 3, H37Rv): 71%
- inhibition at 6.25 µg/mL [5, 10]: 71%
- MIC (M. tuberculosis H37Rv; Table 3): 6.25 µg/mL (≈ 8.8 µM)
- MIC (M. tuberculosis H37Rv; [11]): > 6.25 µg/mL

SMILES: COC(=O)CCC(C)[C@H]1CCC2C3C(C[C@H](OC(C)=O)[C@@]21C)[C@@]1(C)CCC2(C[C@H]1C[C@H]3OC(C)=O)OOC1(CCCCC1C)OO2 (stereo partly drawn) [8d/1B06, Methyl 7α,12α-Diacetoxy-5β-cholan-24-oate-3-spiro-6′-(1′,2′,4′,5′-tetraoxacyclohexane)-3′-spiro-1″-(2″-methyl)cyclohexane]
- Resistance Index [1]: 0.58
- times more active than bis(1,1-dioxy-2-methylcyclohexane) [1]: about 2 times
- IC50 [2]: 0.0175 µg/mL (≈ 0.027 µM)
- IC50 [3]: 0.0102 µg/mL (≈ 0.0156 µM)
- inhibition at 6.25 µg/mL [5, 10]: 29%
- melting point: 204 to 207 °C
- MIC (M. tuberculosis H37Rv; [11]): > 6.25 µg/mL

SMILES: COC(=O)CCC(C)[C@H]1CCC2C3C(C[C@H](OC(C)=O)[C@@]21C)[C@@]1(C)CCC2(C[C@H]1C[C@H]3OC(C)=O)OOC1(OO2)C(C)CCCC1C (stereo partly drawn) [8e/1B07, Methyl 7α,12α-diacetoxy-5β-cholan-24-oate-3-spiro-6′-(1′,2′,4′,5′-tetraoxacyclohexane)-3′-spiro-1″-(2″,6″-dimethyl)cyclohexane]
- antimalarial activity in words ([1]; D6 and W2 clones, Table 2): inactive
- Resistance Index [1]: 11.45
- IC50 [2]: 0.0207 µg/mL (≈ 0.0312 µM)
- IC50 [3]: 0.237 µg/mL (≈ 0.357 µM)
- inhibition at 6.25 µg/mL [5, 10]: 0%
- melting point: 213 to 215 °C
- MIC (M. tuberculosis H37Rv; [11]): > 6.25 µg/mL

SMILES: CC(=O)O[C@H]1CC2C(C3CC[C@H](C(C)CCC(N)=O)[C@]31C)[C@H](OC(C)=O)C[C@@H]1CC3(CC[C@]21C)OOC1(CCCCC1C)OO3 (stereo partly drawn) [13/1C22, 7α,12α-Diacetoxy-5β-cholan-24-amide-3-spiro-6′-(1′,2′,4′,5′-tetraoxacyclohexane)-3′-spiro-1″-(2″-methyl)cyclohexane]
- Resistance Index [1]: 0.64
- times more active than bis(1,1-dioxy-2-methylcyclohexane) [1]: ca. 3.5 times
- IC50 [2]: 0.011 µg/mL (≈ 0.0173 µM)
- IC50 [3]: 0.00705 µg/mL (≈ 0.0111 µM)
- MIC ([6]; M. avium strain 101, MIC dilution 0.25-32): >32 µg/mL
- MIC ([6]; M. avium strain 108, MIC dilution 0.25-32): >32 µg/mL
- MIC ([6]; M. avium strain 109, MIC dilution 0.25-32): >32 µg/mL
- MIC ([6]; M. avium strain 116, MIC dilution 0.25-32): >32 µg/mL
- MIC ([6]; Mycobacterium avium, M. avium strain 100, MIC dilution 0.25-32, read-out: MIC): > 32 µg/mL
- inhibition at 6.25 µg/mL [5, 10]: 100%
- MIC (M. tuberculosis H37Rv; [11]): 0.2 µg/mL (≈ 0.316 µM)

SMILES: CC(=O)O[C@H]1CC2C(C3CC[C@H](C(C)CCC(N)=O)[C@]31C)[C@H](OC(C)=O)C[C@@H]1CC3(CC[C@]21C)OOC1(CCC(C)CC1)OO3 (stereo partly drawn) [17/1C26, 7α,12α-Diacetoxy-5β-cholan-24-amide-3-spiro-6′-(1′,2′,4′,5′-tetraoxacyclohexane)-3′-spiro-1″-((4″R)-methyl)cyclohexane]
- IC50 (in vitro): 3.49 µg/mL and 5.51 µM
- Resistance Index [1]: 0.50
- Resistance Index ([1]; listed as 17): 0.50
- times more active than parent methyl ester 8g ([1]; antimalarial activity): ca. 9 times
- times as active as arteether ([1]; antimalarial activity in vitro): 2.4 times
- times more active than artelinic acid ([1]; antimalarial activity in vitro): ca. 6 times
- Strain D6 IC50 ([2]; listed as 17): 0.00074 µg/mL
- IC50 (VERO cells [7]): 3.49 µg/mL (≈ 5.51 µM)
- Strain W2 IC50 ([3]; listed as 17): 0.00037 µg/mL
- SI (IC50 (Vero)/IC50 (D6 or W2)) (VERO cells [8]; cytotoxicity in Vero cells versus antimalarial activity): 9 500
- SI (selectivity index) (VERO cells [8]): 1.1
- inhibition at 6.25 µg/mL [5, 9]: 99%
- inhibition at 6.25 µg/mL [5, 10]: 99%
- MIC (M. tuberculosis H37Rv; Table 3, H37Rv, read-out: MIC): 3.13 µg/mL and 4.94 µM
- MIC (M. tuberculosis H37Rv; [11]): 3.13 µg/mL (≈ 4.94 µM)

SMILES: CCNC(=O)CCC(C)[C@H]1CCC2C3C(C[C@H](OC(C)=O)[C@@]21C)[C@@]1(C)CCC2(C[C@H]1C[C@H]3OC(C)=O)OOC1(CCC(C)CC1)OO2 (stereo partly drawn) [19/1C28, N-Ethyl-7α,12α-diacetoxy-5β-cholan-24-amide-3-spiro-6′-(1′,2′,4′,5′-tetraoxacyclohexane)-3″-spiro-1″-((4″R)-methyl)cyclohexane]
- IC50 (in vitro): 5.37 µg/mL and 8.11 µM
- Resistance Index [1]: 0.68
- Strain D6 IC50 [2]: 0.00384 µg/mL
- IC50 (VERO cells [7]): 5.37 µg/mL (≈ 8.11 µM)
- Strain W2 IC50 [3]: 0.0026 µg/mL
- SI (selectivity index) (VERO cells [8]): 1.7
- inhibition at 6.25 µg/mL [5, 9]: 98%
- MIC (M. tuberculosis H37Rv; Table 3, H37Rv, read-out: MIC): 3.13 µg/mL and 4.73 µM
- MIC (M. tuberculosis H37Rv; [11]): 3.13 µg/mL (≈ 4.73 µM)

SMILES: CCCNC(=O)CCC(C)[C@H]1CCC2C3C(C[C@H](OC(C)=O)[C@@]21C)[C@@]1(C)CCC2(C[C@H]1C[C@H]3OC(C)=O)OOC1(CCC(C)CC1)OO2 (stereo partly drawn) [20/1C29, N-(n-Propyl)-7α,12α-diacetoxy-5β-cholan-24-amide-3-spiro-6′-(1′,2′,4′,5′-tetraoxacyclohexane)-3′-spiro-1″-((4″R)-methyl)cyclohexane]
- IC50 (in vitro): 8.34 µg/mL and 12.3 µM
- Resistance Index [1]: 1.18
- Strain D6 IC50 [2]: 0.00218 µg/mL
- IC50 (VERO cells [7]): 8.34 µg/mL (≈ 12.3 µM)
- Strain W2 IC50 [3]: 0.00258 µg/mL
- SI (selectivity index) (VERO cells [8]): 1.3
- inhibition at 6.25 µg/mL [5, 9]: 94%
- MIC (M. tuberculosis H37Rv; Table 3, H37Rv, read-out: MIC): 6.25 µg/mL and 9.25 µM
- MIC (M. tuberculosis H37Rv; [11]): 6.25 µg/mL (≈ 9.25 µM)
